The values below come from patent publication EP4818324A1, “BIOLOGICAL METHOD FOR PREPARING 1,2-PROPANEDIOL” (Tianjin University, priority 2023, dated 2025).

Test [1] addresses T1, Escherichia coli strain K12 1,5-anhydromannitol-6-phosphate isomerase EcPflD (Uniprot P32674), SEQ ID NO: 98 (Escherichia coli, UniProt P32674).
T1 sequence (P32674 1-765): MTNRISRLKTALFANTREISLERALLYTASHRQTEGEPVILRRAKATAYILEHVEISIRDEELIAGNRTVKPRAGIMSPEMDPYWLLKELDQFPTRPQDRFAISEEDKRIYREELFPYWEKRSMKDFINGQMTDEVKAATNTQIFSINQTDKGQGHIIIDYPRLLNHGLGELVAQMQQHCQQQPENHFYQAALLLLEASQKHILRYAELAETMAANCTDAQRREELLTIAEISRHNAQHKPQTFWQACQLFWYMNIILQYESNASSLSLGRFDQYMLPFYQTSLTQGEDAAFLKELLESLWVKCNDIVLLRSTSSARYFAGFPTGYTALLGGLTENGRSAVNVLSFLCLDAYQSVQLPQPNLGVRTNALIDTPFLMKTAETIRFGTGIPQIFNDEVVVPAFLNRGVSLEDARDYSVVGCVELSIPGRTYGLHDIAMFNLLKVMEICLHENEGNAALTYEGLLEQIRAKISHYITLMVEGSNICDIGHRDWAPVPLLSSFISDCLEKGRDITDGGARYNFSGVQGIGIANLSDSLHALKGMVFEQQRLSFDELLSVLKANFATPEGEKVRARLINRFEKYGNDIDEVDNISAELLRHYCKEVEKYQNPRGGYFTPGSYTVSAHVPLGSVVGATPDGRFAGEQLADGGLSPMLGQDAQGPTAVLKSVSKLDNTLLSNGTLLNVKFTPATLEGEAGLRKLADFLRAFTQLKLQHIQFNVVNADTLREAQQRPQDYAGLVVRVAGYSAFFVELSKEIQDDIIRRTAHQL
Kind of test: Michaelis-Menten kinetics of EcPflD, coupled with EcFsaB and EcGldA, decrease in A340nm. The class given is biochemical. Particulars: substrate 1,5-AM-6P at various concentrations; 40 nM activated EcPflD, 20 mM Tris/HCl pH 7.5, 100 mM KCl, 0.4 mM NADH, glove box. As to the method:
The reaction system containing 20 mM Tris/HCl, (pH 7.5), 100 mM KCl, 40 nM activated EcPflD and 1,5-AM-6P with various substrate concentrations, 2 µM EcFsaB, 2 µM EcGldA, and 0.4 mM NADH was measured using a cuvette mode of an ultra-micro UV-Vis spectrophotometer (Hangzhou Miu Instruments Co., Ltd.) in a 1 cm Eppendorf cuvette inside a glove box. The decrease in A340nm was monitored at 5-second intervals.

The subject of test [2] is Lactiplantibacillus plantarum 1,5-anhydroglucitol-6-phosphate isomerase LpYbiW (Uniprot A0A807DR53), SEQ ID NO: 2. Kind of test: Michaelis-Menten kinetics of LpYbiW, coupled with LpFsaA and EcGldA, NADH consumption at A340nm. The class given is biochemical. Particulars: substrate 1,5-anhydroglucitol-6-phosphate at varying concentrations; 100 nM activated LpYbiW, 20 mM Tris/HCl pH 7.5, 100 mM KCl, 0.4 mM NADH, glove box. The procedure:
The Michaelis-Menten kinetic parameters of LpYbiW were determined by coupling with LpFsaA and EcGldA. The reaction rate of LpYbiW was monitored by measuring NADH consumption at A340nm. The absorbance change of the reaction system at 340 nm was measured every 5 seconds using the cuvette mode of an ultra-micro UV-visible spectrophotometer (Nanophotometer) in a glove box (1 cm light path). These reaction systems consisted of 100 nM activated LpYbiW, 20 mM Tris/HCl, (pH 7.5), 100 mM KCl, 1,5-anhydroglucitol-6-phosphate with varying concentrations, 5 µM LpFsaA, 5 µM EcGldA, and 0.4 mM NADH.

Turning to `O=P(O)(O)OC[C@H]1OC[C@@H](O)[C@@H](O)[C@@H]1O` [1,5-AM-6P, 1,5-anhydromannitol-6-phosphate], in test [1], the Km was 1.33 ± 0.12 mM and the kcat is listed as 33.47 ± 0.79 s^-1/EcPflD.

In the case of `O=P(O)(O)OC[C@H]1OC[C@H](O)[C@@H](O)[C@@H]1O` [1,5-AG-6P, 1,5-anhydroglucitol-6-phosphate], in test [2], the Km is 36.5 ± 6.66 mM and the kcat came out at 43.38 ± 2.96 s^-1/LpYbiW.

As a reminder, the Km is the substrate concentration at which the rate is half of its maximum.
